Test results published in PMC7408547, “Bivalent Inhibitor with Selectivity for Trimeric MMP-9 Amplifies Neutrophil Chemotaxis and Enables Functional Studies on MMP-9 Proteoforms” (Cells, 2020).
Values joined by “and” are separate entries in the source; they are usually repeats but may differ in a detail not shown here. Identical values can stand only once.

What was measured:
Type in all cases: biochemical
[1] = target: T1, recombinant human MMP-9 trimers (Homo sapiens, UniProt P14780); assay: Gelatin degradation assay, recombinant MMP-9 trimers
T1 construct: made in house; host or cells: Sf9 insect cells
Experimental: (§1) Compounds 5 and 7 were synthesized as previously reported. Full-length human proMMP-9 was produced by recombinant expression in Sf9 insect cells and purified by gelatin-Sepharose chromatography as previously described. Stable full-length proMMP-9 monomers and trimers were separated by glycerol gradient ultracentrifugation as previously described. ProMMP-9 mixture and the separated monomers and trimers were activated by incubation with the catalytic domain of MMP-3 (cat. No. 444217, Merck Millipore, Darmstadt, Germany) as previously described. Activation of proMMP-9 was confirmed by a band shift of ±10 kDa, corresponding to the removal of the auto-inhibitory propeptide domain and by detection of gelatinolytic activity with a previously described gelatin degradation assay. MMP-9 monomers and trimers purified from human neutrophils were purchased (Cat. No. 444,231 and 444232, Sigma-Aldrich, St. Louis, MO, USA). Examples of sample purities and activations can be found in Supplementary Figure S1. Recombinant human proMMP-2 (CHO cell-derived), proMMP-3 (NS0 cell-derived), proMMP-7 (NS0 cell-derived) and proMMP-8 (NS0 cell-derived) were purchased from R & D systems (Minneapolis, MN, USA), dissolved in assay buffer (150 mM NaCl, 5 mM CaCl2, 0.01% Tween-20, 50 mM Tris, pH 7.4) to a concentration of 100 µg/mL and activated by incubation with 1 mM p-aminophenylmercuric acetate for, respectively, 1h, 6h, 2h and 1h. Activation of MMPs was confirmed by a band shift of approximately 10 kDa, corresponding to the removal of the propeptide domain. MMP-14/MT1-MMP (NS0 cell-derived) was also purchased from R & D systems (Minneapolis, MN, USA) and activated by incubation with recombinant human furin (cat. No. 1503-SE-010, R & D systems, Minneapolis, MO, USA) in activation buffer (50 mM Tris, 1 mM CaCl2, 0.5% Brij-35, pH 9) for 1.5 h and activity was tested in assay buffer (50 mM Tris, 3 mM CaCl2, 1 µM ZnCl2, pH 8.5). Active human neutrophil elastase (NE) was purchased from Abcam (Cambridge, UK) and for activity assays of NE the assay buffer was replaced by 200 mM Tris, pH 8.8. ADAM17/TACE (Sf 21 (baculovirus)-derived, R & D systems, Minneapolis, MO, USA) was diluted and evaluated in 25 mM Tris, 2.5 μM ZnCl2, 0.005% Brij-35, pH 9.0. All stocks of the compounds were evaluated for the presence of endotoxin using the EndoZyme II assay (Hyglos bioMérieux, Bernried am Starnberger See, Germany). Endotoxin levels in all concentrated stocks (2.5 mg/mL) were below the accepted limit of 0.5 EU/mL.
(§2) To determine the inhibition of gelatinolytic activity, we used a previously optimized gelatin degradation assay. Activated MMP-9, activated MMP-2, neutrophil elastase or supernatants of stimulated neutrophils, were incubated with different concentrations of inhibitors and incubated for 30 min at 37 °C. Next, dye-quenched gelatin (DQ™-gelatin, Invitrogen, Carlsbad, CA, USA) was added at a final concentration of 2.5 µg/mL and the increase in fluorescence over time was measured with the CLARIOstar microplate reader (BMG Labtech, Ortenberg, Germany). For other MMPs, the OmniMMP substrate peptide (Mca-PLGL-Dpa-AR-NH2, cat. no. BML-P126-0001, Enzo Life Sciences, Farmingdale, NY, USA) was used at a final concentration of 2.5 µg/mL. For ADAM17 the fluorogenic peptide Mca-PLAQAV-Dpa-RSSSR-NH2 (ES003, R & D systems, Minneapolis, MO, USA) and for neutrophil elastase the fluorogenic substrate MeOSuc-AAPV-AMC (cat. no. 324740, Merck Millipore, Darmstadt, Germany) were used. Proteolytic activity was determined by linear regression of the fluorescence curve and the percentage inhibition was calculated through comparison with the positive control (no inhibitors). When testing supernatants from human neutrophils, the assay was performed in the presence of 20 µM neutrophil elastase inhibitor (Elastase Inhibitor IV, Calbiochem, Darmstadt, Germany).

[2] = target: T1, recombinant human MMP-9 trimers; assay: Fluorogenic peptide (OmniMMP) degradation assay, recombinant MMP-9 trimers; conditions: recombinant human MMP-9 (Sf9) tri
Experimental: as §1, §2

[3] = tested on: secretions of fMLF stimulated human granulocytes; assay: Gelatinolysis in secretions of fMLF stimulated human granulocytes; conditions: in the presence of 20 µM neutrophil elastase inhibitor; for inhibition of metalloproteinase-derived gelatinolytic signal: highest dose of 100 µM
Experimental: as §2
Neutrophils were isolated from fresh blood from healthy donors, via density gradient centrifugation as described. To obtain neutrophil degranulate, neutrophils were suspended in degranulation buffer (120 mM NaCl, 15 mM CaCl2, 20 mM Tris/HCl pH 7.5) at a concentration of 10^7 cells/mL and degranulation was induced by incubating neutrophils with N-formyl-methionyl-leucyl-phenylalanine (fMLF) (final concentration 0.5 µM) for 20 min at 37 °C as previously described. Next, the supernatant was collected by centrifugation. For fresh blood donations, all subjects gave written informed consent in accordance with the Declaration of Helsinki.

[4] = recombinant human MMP-9 (Sf9) tri, gelatin degradation

T1 sequence (P14780 107-707 limits assumed): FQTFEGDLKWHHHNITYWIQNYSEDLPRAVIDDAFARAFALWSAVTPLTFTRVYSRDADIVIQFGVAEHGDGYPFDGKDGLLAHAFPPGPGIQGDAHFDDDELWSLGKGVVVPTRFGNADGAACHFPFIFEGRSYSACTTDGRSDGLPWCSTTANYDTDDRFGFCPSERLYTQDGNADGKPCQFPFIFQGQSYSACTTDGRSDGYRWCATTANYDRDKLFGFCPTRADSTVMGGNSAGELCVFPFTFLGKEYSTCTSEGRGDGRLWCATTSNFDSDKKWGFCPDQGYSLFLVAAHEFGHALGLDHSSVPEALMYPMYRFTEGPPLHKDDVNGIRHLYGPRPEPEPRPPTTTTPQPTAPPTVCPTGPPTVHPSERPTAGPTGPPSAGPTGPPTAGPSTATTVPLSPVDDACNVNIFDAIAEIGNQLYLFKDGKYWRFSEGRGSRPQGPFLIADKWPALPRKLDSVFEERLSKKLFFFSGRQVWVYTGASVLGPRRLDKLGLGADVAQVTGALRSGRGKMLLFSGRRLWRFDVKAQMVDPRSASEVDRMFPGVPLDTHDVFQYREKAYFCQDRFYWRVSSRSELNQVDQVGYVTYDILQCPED

Structure (SMILES)	IC25 [1, 4] [nM]	IC50 [1, 4] [nM]	IC75 [1, 4] [nM]	IC25 [2] [nM]	IC50 [2]	IC75 [2] [nM]	inhibition of metalloproteinase-derived gelatinolytic signal [3]	fold more potent at inhibiting gelatinolysis by trimeric versus monomeric MMP-9 ([1]; recombinant human MMP-9, gelatin substrate)	inhibition of metalloproteinase-derived gelatinolytic signal, first inhibition plateau ([3]; around a concentration of 1 µM)
CC(C)[C@H](C(=O)O)N(CCNC(=O)c1ccccc1)S(=O)(=O)c1ccc(-c2ccccc2)cc1 [Compound 5]	526	2250	9660	237	724 nM	2211	approximately 30%		
CC(C)[C@H](C(=O)O)N(CCNC(=O)c1cccc(C(=O)NCCN([C@@H](C(=O)O)C(C)C)S(=O)(=O)c2ccc(-c3ccccc3)cc2)c1)S(=O)(=O)c1ccc(-c2ccccc2)cc1 [Compound 7]		0.18	18	0.0017	~0.1 nM and 0.1 nM	6.0	almost complete inhibition	over 1000 fold	approximately 30%
